Data from ChEMBL document CHEMBL4699480 (J Med Chem, 2020).
Activity calls are given as the source filed them. No cut-off for these calls is given here.

What was measured:
[1] = Cytotoxicity in human PD002 cells assessed as reduction in cell viability incubated for 72 hrs by MTT assay; assay type: functional, cell-based; details: PD002, 72 h
[2] = Inhibition of Mycobacterium tuberculosis WecA by fluorescence based assay
[3] = target: T1, UDP-N-acetylglucosamine--dolichyl-phosphate N-acetylglucosaminephosphotransferase (Homo sapiens, UniProt Q9H3H5); experiment: Inhibition of human DPAGT1 expressed in HEK293 (Expi293) cells incubated for 2 hrs using UDP-GlcN-Cg-FITC and alpha-dihydroundecap-renyl phosphate by reversed-phase HPLC analysis; assay type: cell-based
T1 sequence (Q9H3H5 whole entry): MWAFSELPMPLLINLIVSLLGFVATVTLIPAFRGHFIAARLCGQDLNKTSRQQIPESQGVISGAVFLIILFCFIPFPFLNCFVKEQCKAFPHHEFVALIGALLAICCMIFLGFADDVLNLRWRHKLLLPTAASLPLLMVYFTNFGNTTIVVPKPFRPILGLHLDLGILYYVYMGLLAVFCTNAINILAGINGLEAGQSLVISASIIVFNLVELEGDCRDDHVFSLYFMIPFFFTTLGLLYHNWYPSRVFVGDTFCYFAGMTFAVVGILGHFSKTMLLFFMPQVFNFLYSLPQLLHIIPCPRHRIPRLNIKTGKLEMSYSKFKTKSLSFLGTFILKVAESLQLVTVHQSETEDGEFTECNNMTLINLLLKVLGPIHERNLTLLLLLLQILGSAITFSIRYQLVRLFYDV

[4] = system: DLD-1; experiment: Cytotoxicity in human DLD-1 cells assessed as reduction in cell viability incubated for 72 hrs by MTT assay; assay type: functional, cell-based; details: DLD-1, 72 h
[5] = Cytotoxicity in mouse L1210 cells assessed as reduction in cell viability incubated for 72 hrs by MTT assay; details: L1210, 72 h
[6] = system: PANC-1; experiment: Cytotoxicity in human PANC-1 cells assessed as reduction in cell viability incubated for 72 hrs by MTT assay; assay type: functional, cell-based; details: PANC-1, 72 h
[7] = system: ASPC1; experiment: Cytotoxicity in human ASPC1 cells assessed as reduction in cell viability incubated for 72 hrs by MTT assay; assay type: functional, cell-based; details: ASPC1, 72 h
[8] = system: HCT-116; experiment: Cytotoxicity in human HCT-116 cells assessed as reduction in cell viability incubated for 72 hrs by MTT assay; assay type: functional, cell-based; details: HCT-116, 72 h
[9] = Inhibition of Escherichia coli WecA incubated for 2 hrs using UDP-Glucosamine-C6-FITC substrate by reversed-phase HPLC analysis; parameters: species or system Escherichia coli BL21
[10] = system: Vero; experiment: Cytotoxicity in African green monkey Vero cells assessed as reduction in cell viability incubated for 72 hrs by MTT assay; assay type: cell-based; details: Chlorocebus sabaeus
[11] = Inhibition of N-terminal 6x-His-tagged Hydrogenivirga-sp. 128-5-R1-1 MraY expressed in Escherichia coli NiCo21(DE3) incubated for 2 hrs by reversed-phase HPLC analysis
[12] = system: KB; experiment: Cytotoxicity in human KB cells assessed as reduction in cell viability incubated for 72 hrs by MTT assay; assay type: functional, cell-based
[13] = system: CAPAN-1; experiment: Cytotoxicity in human CAPAN-1 cells assessed as reduction in cell viability incubated for 72 hrs by MTT assay; assay type: functional, cell-based; details: CAPAN-1, 72 h
[14] = Inhibition of N-terminal His9-tagged Methanocaldococcus jannaschii DSM 2661 AglH incubated for 2 hrs using UDP-GlcN-Cg-FITC and alpha-dihydroundecap-renyl phosphate by reversed-phase HPLC analysis
[15] = Cytotoxicity in human hTERT-HPNE cells assessed as reduction in cell viability incubated for 72 hrs by MTT assay; assay type: cell-based
[16] = system: SiHa; experiment: Cytotoxicity in human SiHa cells assessed as reduction in cell viability incubated for 72 hrs by MTT assay; assay type: functional, cell-based
[17] = system: PD002; experiment: Inhibition of cell migration in human PD002 cells at 0.1 uM incubated for 0.5 hrs by crystal violet staining based Boyden chamber assay; assay type: functional
[18] = Inhibition of Mycobacterium tuberculosis WecA

Molecule `CO[C@H]1[C@@H](OC)[C@H](n2ccc(=O)[nH]c2=O)O[C@@H]1[C@@H](O[C@H]1OC(C(=O)N[C@H]2CCCCNC2=O)=C[C@H](O)[C@@H]1O)C(N)=O` has an IC50 [1] greater than 50 µM, an IC50 [2] of 0.06 µM and an IC50 [3] of 4.5 µM. The IC50 [4] was greater than 50 µM, the IC50 [5] was greater than 50 µM and the IC50 [6] was greater than 50 µM. For the same molecule, the IC50 [7] was greater than 50 µM, the IC50 [8] was greater than 50 µM and the IC50 [9] was 0.06 µM. For the same molecule, the IC50 [10] was greater than 50 µM, the IC50 [11] was greater than 50 µM and the IC50 [12] was greater than 50 µM. It also gave an IC50 [13] greater than 50 µM, an IC50 [14] of 2.5 µM and an IC50 [15] greater than 50 µM. The IC50 [16] was greater than 50 µM.

For `Nc1ccn([C@@H]2O[C@H](CO)[C@@H](O)C2(F)F)c(=O)n1`, the inhibition [17] was “Active”.

`CO[C@H]1[C@@H](OC)[C@H](n2ccc(=O)[nH]c2=O)O[C@@H]1[C@@H](O[C@H]1OC(C(=O)NCc2ccc(N3CCC(Oc4ccc(OC(F)(F)F)cc4)CC3)cc2)=C[C@H](O)[C@@H]1O)C(N)=O` showed an IC50 [3] of 20 µM, an IC50 [9] of 10 µM and an IC50 [11] of 5 µM. The IC50 [14] was 30 µM.

Work on `CO[C@@H]1[C@H](O)[C@@H]([C@@H](O[C@H]2OC(C(=O)N[C@H]3CCCCNC3=O)=C[C@H](O)[C@@H]2O)C(N)=O)O[C@H]1n1ccc(=O)[nH]c1=O` yielded an IC50 [3] of 11.5 µM, an IC50 [9] of 30 µM and an IC50 [11] of 8.5 µM. The IC50 [14] was 20 µM.

Work on `CO[C@@H]1[C@H](O)[C@@H]([C@@H](O[C@H]2OC(CNCc3ccc(N4CCC(Oc5ccc(OC(F)(F)F)cc5)CC4)cc3)=C[C@H](O)[C@@H]2O)C(N)=O)O[C@H]1n1ccc(=O)[nH]c1=O` yielded an IC50 [3] greater than 50 µM, an IC50 [9] greater than 50 µM and an IC50 [11] greater than 50 µM. The IC50 [14] was greater than 50 µM.

With `NC(=O)[C@H](O[C@H]1OC(C(=O)N[C@H]2CCCCNC2=O)=C[C@H](O)[C@@H]1O)[C@H]1O[C@@H](n2ccc(=O)[nH]c2=O)[C@H](O)[C@@H]1O` the IC50 [3] was greater than 50 µM, the IC50 [9] was 35 µM and the IC50 [11] was greater than 50 µM. The IC50 [14] was greater than 50 µM.

Work on `NC[C@H]1O[C@@H](O[C@H]([C@H]2O[C@@H](n3ccc(=O)[nH]c3=O)[C@H](O)[C@@H]2O)[C@H](NCCCC(=O)NCc2ccc(N3CCC(Oc4ccc(OC(F)(F)F)cc4)CC3)cc2)C(N)=O)[C@H](O)[C@@H]1O` yielded an IC50 [3] of 0.01 µM, an IC50 [9] of 0.01 µM and an IC50 [11] of 0.01 µM. The IC50 [14] was 0.01 µM.

Work on `CO[C@H]1[C@@H](O)[C@H](n2ccc(=O)[nH]c2=O)O[C@@H]1[C@@H](O[C@H]1OC(C(=O)N[C@H]2CCCCNC2=O)=C[C@H](O)[C@@H]1O)C(N)=O` [CAPURAMYCIN] yielded an IC50 [1] greater than 50 µM, an IC50 [3] greater than 50 µM and an IC50 [4] greater than 50 µM. It also gave an IC50 [5] greater than 50 µM, an IC50 [6] greater than 50 µM and an IC50 [7] greater than 50 µM. The IC50 [8] was greater than 50 µM, the IC50 [9] was greater than 50 µM and the IC50 [10] was greater than 50 µM. It also gave an IC50 [11] of 0.13 µM, an IC50 [12] greater than 50 µM and an IC50 [13] greater than 50 µM. For the same molecule, the IC50 [14] was greater than 50 µM, the IC50 [15] was greater than 50 µM and the IC50 [16] was greater than 50 µM.

Work on `NC(=O)[C@H](O[C@H]1OC(C(=O)NCc2ccc(N3CCC(Oc4ccc(OC(F)(F)F)cc4)CC3)cc2)=C[C@H](O)[C@@H]1O)[C@H]1O[C@@H](n2ccc(=O)[nH]c2=O)[C@H](O)[C@@H]1O` yielded an IC50 [3] greater than 50 µM, an IC50 [9] of 30 µM and an IC50 [11] greater than 50 µM. For the same molecule, the IC50 [14] was greater than 50 µM.

Work on `CO[C@H]1[C@@H](O)[C@H](n2ccc(=O)[nH]c2=O)O[C@@H]1[C@@H](O[C@H]1OC(CNCc2ccc(N3CCC(Oc4ccc(OC(F)(F)F)cc4)CC3)cc2)=C[C@H](O)[C@@H]1O)C(N)=O` yielded an IC50 [3] greater than 50 µM, an IC50 [9] greater than 50 µM and an IC50 [11] greater than 50 µM. For the same molecule, the IC50 [14] was greater than 50 µM.

With `CCCCc1ccc(NC(=O)C2=CCN(C)[C@@H]([C@H](O[C@@H]3O[C@H](CN)[C@@H](O)[C@H]3O)[C@H]3O[C@@H](n4ccc(=O)[nH]c4=O)[C@H](O)[C@@H]3O)C(=O)N2C)cc1` the IC50 [18] was 0.084 µM.

With `CO[C@@H]1[C@H](O)[C@@H]([C@@H](O[C@H]2OC(C(=O)NCc3ccc(N4CCC(Oc5ccc(OC(F)(F)F)cc5)CC4)cc3)=C[C@H](O)[C@@H]2O)C(N)=O)O[C@H]1n1ccc(=O)[nH]c1=O` the IC50 [1] was 50 µM, the IC50 [4] was 35 µM and the IC50 [5] was greater than 50 µM. It also gave an IC50 [6] of 45 µM, an IC50 [7] of 30 µM and an IC50 [8] of 25 µM. The IC50 [9] was 20 µM, the IC50 [10] was greater than 50 µM and the IC50 [11] was greater than 50 µM. For the same molecule, the IC50 [12] was 35 µM, the IC50 [13] was 40 µM and the IC50 [14] was 15 µM. It also gave an IC50 [15] greater than 50 µM and an IC50 [16] of 25 µM.
